Data reported in patent publication US5849737A, “Compositions and methods for treating pain” (priority 1995, dated 1998).
Entries after “also recorded” stand apart in the source; their conditions may differ. Where two headings read alike, the source gives them in different places.

How the values were obtained:
[1] = system: tactile allodynia (paw withdrawal thresholds); experiment: Tactile allodynia (50% paw withdrawal threshold, von Frey) after intravenous drug, L5/L6 spinal nerve ligated rats; type: in vivo, Male Harlan Sprague-Dawley rats
Excerpt: For intravascular access, external jugular catheters were fashioned from PE-50 tubing and inserted into an external jugular vein under halothane/oxygen anesthesia. Arterial catheters were also fashioned from PE-50 with a small bouton 1 cm from the intravascular end for suture securing; they were inserted into a carotid artery, taking care to spare the surrounding nerves. All catheters were flushed with heparinized saline (10 U/ml) and tunneled subcutaneously to emerge at the posterior base of the neck, and capped when not in use. […] Rats were placed in a plastic cage with an open wire mesh bottom and allowed to accommodate for approximately fifteen minutes. A series of 8 von Frey filaments with logarithmically incremental stiffness (0.41, 0.70, 1.20, 2.00, 3.63, 5.50, 8.50, and 15.10 g) (Stoelting, Wood Dale, Ill.) was used to determine the 50% threshold for paw withdrawal to light mechanical stimuli (PWT). In brief, von Frey hairs were sequentially applied using an up-and-down paradigm to the left mid-plantar hindpaw with sufficient force to cause slight filament buckling. Positive responses were noted if the paw was sharply withdrawn. […] Otherwise, PWT were calculated by noting the stimulus level at which the first change in behavior occurred, collecting four additional responses to the continued up-and-down oscillation of stimulus presentation around the response threshold, and interpolating the 50% response threshold. […] The following equation was used to compute %MPE: [formula] Plasma drug levels and PWT were correlated using linear regression. Serially measured PWT and %MPE were compared using repeated measures ANOVA.

[2] = system: tactile allodynia (paw withdrawal thresholds); experiment: Tactile allodynia (50% paw withdrawal threshold, von Frey) after intrathecal drug, L5/L6 spinal nerve ligated rats; type: in vivo, Male Harlan Sprague-Dawley rats; conditions: IT; lidocaine 500 μg, MEGX 500 μg, 3-OH L 58 μg
Method: (§1) Male Harlan Sprague-Dawley rats were used (100-200 g). Rats were housed 2-3 to a cage with corn cob bedding and Purina rat chow and water ad libitum, in a standard facility with a 12 h/ 12 h day/night cycle. After surgical procedures involving chronic indwelling catheter insertion, animals were housed singly to prevent catheter damage.
Rats were allowed to recover 5-7 days before further testing or surgeries.
(§2) The catheters were 9 cm in intrathecal length and terminated near the lumbar enlargement. The rostral 3 cm of catheter was tunneled under the skin to externalize between the ears. Rats with neurologic deficits were discarded.
(§3) Monoethylglycinexylidide (MEGX) was dissolved in physiologic saline; 3-hydroxylidocaine (3-OH L) was dissolved in DMSO for intravenous administration.
Intravenous drugs were delivered to awake, unrestrained rats by slow infusion using a syringe pump (Harvard apparatus 22). Intrathecal drugs were delivered to awake, briefly restrained rats in a volume of 10 μl, followed by 10 μl of vehicle flush, using a calibrated tubing extension with a 30-gauge adapter fitting the implanted intrathecal catheter, attached to a geared Hamilton 100 μl glass syringe. IT drug delivery was monitored by observing the advancement of a small air bubble down the tubing.
Rats were placed in a plastic cage with an open wire mesh bottom and allowed to accommodate for approximately fifteen minutes. […] In brief, von Frey hairs were sequentially applied using an up-and-down paradigm to the left mid-plantar hindpaw with sufficient force to cause slight filament buckling. Positive responses were noted if the paw was sharply withdrawn. […] Otherwise, PWT were calculated by noting the stimulus level at which the first change in behavior occurred, collecting four additional responses to the continued up-and-down oscillation of stimulus presentation around the response threshold, and interpolating the 50% response threshold. […] The following equation was used to compute %MPE: [formula]
(§4) Plasma drug levels and PWT were correlated using linear regression. Serially measured PWT and %MPE were compared using repeated measures ANOVA.

[3] = system: P45ONF(human) (P-450 PB-1(rat)(IIIA4) enzyme); conditions: lidocaine metabolite formation; cited from earlier work
[4] = Toxicity and plasma bupivacaine levels on intravenous infusion (GC assay); type: in vivo, Male Harlan Sprague-Dawley rats
Excerpt: For intravascular access, external jugular catheters were fashioned from PE-50 tubing and inserted into an external jugular vein under halothane/oxygen anesthesia. Arterial catheters were also fashioned from PE-50 with a small bouton 1 cm from the intravascular end for suture securing; they were inserted into a carotid artery, taking care to spare the surrounding nerves. All catheters were flushed with heparinized saline (10 U/ml) and tunneled subcutaneously to emerge at the posterior base of the neck, and capped when not in use.
For bupivacaine assays, samples were obtained by withdrawing and discarding approximately 0.3 cc of blood from arterial cannulae, and then withdrawing samples of approximately 0.5 cc volume. These samples were centrifuged and the plasma supernatant was frozen at -20° C. until analysis. […]
Bupivacaine was quantitated by capillary GC with nitrogen-phosphorus detection [Bjork M et al., Journal of Chromatography 533:229-234 (1990)]. […] Split injections (1.5:1) were performed with a Hewlett Packard 7673A automatic sampler, and the chromatograms were recorded and analyzed with H-P Chemstation (MSDOS) software. […]
as §4

[5] = system: tactile allodynia (paw withdrawal thresholds); experiment: Mechanical allodynia after single i.p. dose in SD rats (left L5/L6 spinal nerve ligation); type: in vivo
[6] = system: acutely injured peripheral terminals; conditions: in vitro, protein-free system; cited from earlier work
dorsal root ganglion = conditions: intravenous, whole animals; cited from earlier work
[7] = DA rats; some species of rats; cited from earlier work
[8] = system: centrally organized nociceptive flexion response; conditions: painful diabetic neuropathy; cited from earlier work
[9] = system: wide dynamic range neurons; conditions: IV, 3-4 mg/kg, rat; cited from earlier work
[10] = system: tactile allodynia (paw withdrawal thresholds); conditions: after termination of motor block [Chaplan et al. (1993)]; cited from earlier work
[11] = system: peripheral nerve injury pain; conditions: lidocaine intravenous; mexiletine oral; cited from earlier work
neuromata = conditions: intravenous, whole animals; cited from earlier work
[12] = system: painful diabetic neuropathy; conditions: cited from earlier work; for clinical effect in painful diabetic neuropathy: lidocaine intravenous, mexiletine oral
[13] = system: tactile allodynia (paw withdrawal thresholds); conditions: IV systemic lidocaine, cited from earlier work
[14] = system: sural nerve evoked after discharges; conditions: IV, 1 mg/kg; cited from earlier work
[15] = system: polysynaptic C-fiber evoked flexor responses; conditions: IV, 1-5 mg/kg, cited from earlier work
motor function = experiment: Motor and behavioral effects after intrathecal administration
Method: as §1
To induce neuropathy, rats were anesthetized with halothane/oxygen, and the left L5/L6 spinal nerves were exposed via a dorsal midline incision and ligated tightly with 6-0 silk suture according to the reported method [Kim S H et al., Pain 50:355-363 (1992)]. Rats were allowed to recover 5-7 days before further testing or surgeries.
as §2, with “Intrathecal PE-10 catheters were implanted under halothane/oxygen anesthesia [Yaksh T L et al., Physiol Behav 17:1031-1036 (1976)]. The catheters” for “The catheters”
as §3
Intravenous drugs were delivered to awake, unrestrained rats by slow infusion using a syringe pump (Harvard apparatus 22). […] IT drug delivery was monitored by observing the advancement of a small air bubble down the tubing.

[16] = system: tactile allodynia (paw withdrawal thresholds); experiment: Mechanical allodynia after single i.p. dose in DA rats (left L5/L6 spinal nerve ligation); type: in vivo; conditions: for effect on tactile allodynia, DA rats: single i.p. dose, lidocaine 60 mg/kg, 3-OHL 15 mg/kg (P<0.002)
neuropathic pain states = conditions: orally available lidocaine congeners; systemically administered local anesthetics; cited from earlier work
trigeminal neuralgia = conditions: oral; cited from earlier work

## CCNCC(=O)Nc1c(C)cccc1C [MEGX, Monoethylglycinexylidide]
[1]; 20 mg/kg, infused over 60 minutes
  allodynia suppression by IV MEGX: completely devoid of anti-allodynia activity by the intravenous route; also recorded: no effect whatsoever
[1]; MEGX 20 mg/kg IV infused over 60 minutes, baseline 1.7±0.6 g
  PWT post infusion: 1.96 ± 0.4 g
[2]
  effect on allodynia thresholds after IT delivery: not MEGX, suppressed allodynia; also recorded: no effect on PWT at this limiting dose
[3]
  enzyme producing the metabolite MEGX: produced by the P45ONF(human) (P-450 PB-1(rat)(IIIA4) enzyme

## CCCCN1CCCCC1C(=O)Nc1c(C)cccc1C (centres unmarked) [bupivacaine]
[1]; IV infusion, up to plasma concentrations which caused evident toxicity, 15 samples from 4 rats, P=0.11, linear regression
  effect of intravenous infusion on allodynia: inactive against allodynia; also recorded: no effect on allodynia
[1]; IV, 4 rats, 15 samples, plasma levels up to toxic range (FIG. 1)
  correlation of plasma bupivacaine levels with %MPE (allodynia suppression): lack of correlation
[4]; IV infusion
  toxicity on intravenous infusion: ataxia and lethargy; also recorded: Higher doses resulted in seizure
[4]; IV, N=4, unit not given
  mean plasma level at higher doses that resulted in seizure: 7.4±0.7

## CCN(CC)CC(=O)Nc1c(C)cccc1C [lidocaine]
[5]; lidocaine 60 mg/kg i.p. single dose, N=6, strain difference P<0.002
  duration of tactile allodynia alleviation, SD rats: more than 16 days
[5]; single i.p. dose, lidocaine 60 mg/kg, 3-OHL 15 mg/kg (P<0.05)
  effect on tactile allodynia, SD rats: sustained effect on tactile allodynia in SD rats; also recorded: persistent effects of lidocaine against allodynia
[6]
  ED50, suppression of spontaneous activity: 5.7 µg/mL
Dorsal root ganglion
  ED50 for discharge suppression, dorsal root ganglion: 1 mg/kg
[7]
  3-hydroxylation / production of 3-OH L in rats: lack of 3-hydroxylation in this strain
[8]
  nociceptive flexion response: suppression of the centrally organized nociceptive flexion response
[9]
  effect on wide dynamic range neuron activity: selectively suppresses the increased wide dynamic range neuronal activity seen ipsilateral to chronic peripheral nerve injury; also recorded: suppresses noxious-evoked activity in wide dynamic range neurons in the rat
[10]
  anti-allodynic effect, IT / regional route (earlier report): no anti-allodynic effect after termination of motor block
[11]
  clinical effect in peripheral nerve injury pain: decreases in spontaneous pain, albeit of short duration
neuromata
  ED50 for discharge suppression in neuromata: 6 mg/kg
[12]; intravenous lidocaine, painful diabetic neuropathy
  thermal thresholds: without alteration in thermal thresholds
[12]
  clinical effect in painful diabetic neuropathy: reduced pain scores for several days
[2]
  effect on allodynia thresholds after IT delivery: no effect on allodynia was seen
[13]; listed as Lidocaine
  effect on allodynia, intravenous route (earlier reports): effective against allodynia by the intravenous
[13]
  effect on allodynia, intravenous route (earlier reports): long lasting effect by the IV route
[14]
  suppression of sural nerve evoked after discharges: suppression of polysynaptic (spinal cord) sural nerve evoked after discharges
[15]
  conduction block at the peripheral terminal: without evidence of conduction block at the peripheral terminal
[15]; mustard oil and noxious heat
  effect on polysynaptic C-fiber evoked flexor responses: suppresses polysynaptic C-fiber evoked flexor responses to mustard oil and noxious heat
Motor function; 500 μg
  duration of motor dysfunction after IT delivery: approximately 10 minutes
Motor function; lidocaine 500 μg, MEGX 500 μg, 3-OH L 58 μg
  motor effects after IT delivery: acute onset of hindquarter flaccidity
[16]; lidocaine 60 mg/kg i.p.
  time of transient effect, DA rats: 30 min
[16]
  effect on tactile allodynia, DA rats: not effective in this regard in DA rats; also recorded: no sustained effect of lidocaine in DA rats
[16]; listed as Lidocaine
  effect on tactile allodynia, DA rats: no sustained effect whatsoever

## Cc1cccc(C)c1OCC(C)N (centres unmarked) [mexiletine]
[11]
  clinical effect in peripheral nerve injury pain: analgesic effects
[12]
  clinical effect in painful diabetic neuropathy: analgesic effects
Neuropathic pain states
  clinical efficacy in neuropathic pain states: far from universally effective
  tolerability in neuropathic pain states: in many cases are poorly tolerated due to side effects, including some which may be life-threatening

## Cc1cccc(C)c1NC(=O)C(C)N (centres unmarked) [tocainide]
Neuropathic pain states
  clinical efficacy in neuropathic pain states: far from universally effective
  tolerability in neuropathic pain states: in many cases are poorly tolerated due to side effects, including some which may be life-threatening
Trigeminal neuralgia
  clinical effect in trigeminal neuralgia: analgesic effects
